In patent US20240343704A1, “HALO-SUBSTITUTED AMINO PYRIDINE COMPOUNDS AS INHIBITORS OF THE HAEMATOPOIETIC PROGENITOR KINASE 1 (HPK1)” (priority 2021, published 2024) one finds IC50 data, which are given here for 22 compounds.

SMILES strings stand for the structures.

The assay has as its target T1, Recombinant (1-346) HPK1 (h) (Homo sapiens, UniProt Q92918).
T1 construct: Recombinant (1-346) HPK1 (h) is incubated with 8 mM MOPS pH 7.0
T1 sequence (Q92918 1-346): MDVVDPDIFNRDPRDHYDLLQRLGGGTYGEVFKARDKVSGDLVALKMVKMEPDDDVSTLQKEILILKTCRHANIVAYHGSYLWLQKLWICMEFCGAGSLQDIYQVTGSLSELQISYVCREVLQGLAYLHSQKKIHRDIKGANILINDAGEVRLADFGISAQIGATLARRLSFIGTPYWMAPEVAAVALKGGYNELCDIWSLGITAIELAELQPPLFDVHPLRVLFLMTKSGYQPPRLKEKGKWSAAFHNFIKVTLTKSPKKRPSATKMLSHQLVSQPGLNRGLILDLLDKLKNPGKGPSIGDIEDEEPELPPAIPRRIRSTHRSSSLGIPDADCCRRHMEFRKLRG
The assay can be described thus: HPK1 Human STE Kinase Enzymatic Radiometric Assay. The class given is biochemical. The note with it: read-out: HPK1 IC50 nM Range*. The protocol:
A stock solution of 10 mM of test compound is prepared in DMSO. The compound plate was prepared by 3-fold and 9-point serial dilutions. […] The reaction is initiated by The addition of the Mg/ATP mix. After incubation for 40 minutes at RT, the reaction is stopped by the addition of phosphoric acid to a concentration of 0.5%.
A word on the IC50: it is the concentration that inhibits the measured activity by half. On to `CN(C)Cc1c(N2CCOCC2)ccc(-c2cc(-c3ccc4c(c3)CCNC4=O)c(N)nc2F)c1F` [I-606, 6-(2-amino-5-(3-((dimethylamino)methyl)-2-fluoro-4-morpholinophenyl)-6-fluropyridin-3-yl)-3,4-dihydroisoquinolin-1(2H)-one], for which the IC50 was 11 to 100 nM.

On to `CN(C)Cc1c(N2CCOCC2)ccc(-c2cc(-c3cc4c(cc3F)C(=O)NCC4)c(N)nc2F)c1F` [I-607, 6-(2-amino-5-(3-((dimethylamino)methyl)-2-fluoro-4-morpholinophenyl)-6-fluoropyridin-3-yl)-7-fluoro-3,4-dihydroisoquinolin-1(2H)-one], for which the IC50 lay in the range of 11 to 100 nM.

As for `Nc1nc(F)c(-c2ccc(N3CCOCC3)c(CN3CCC3)c2F)cc1-c1cc2c(cc1F)C(=O)NCC2` [I-608, 6-(2-amino-5-(3-(azetidin-1-ylmethyl)-2-fluoro-morpholinophenyl)-6-fluoropyridin-3-yl)-7-fluoro-3,4-dihydroisoquinolin-1(2H)-one], the IC50 is 11 to 100 nM.

Turning to `CCN(C)Cc1c(N2CCOCC2)ccc(-c2cc(-c3ccc4c(c3)CCNC4=O)c(N)nc2F)c1F` [I-610, 6-(2-amino-5-(3-((ethyl(methyl)amino)methyl)-2-fluoro-4-morpholinophenyl)-6-fluoropyridin-3-yl)-3,4-dihydroisoquinolin-1(2H)-one], the IC50 fell in the range of 11 to 100 nM.

Consider `CCN(C)Cc1c(N2CCOCC2)ccc(-c2cc(-c3cc4c(cc3F)C(=O)NCC4)c(N)nc2F)c1F` [I-611, 6-(2-amino-5-(3-((ethyl(methyl)amino)methyl)-2-fluoro-4-morpholinophenyl)-6-fluoropyridin-3-yl)-7-fluoro-3,4-dihydroisoquinolin-1(2H)-one], for which the concentration for half-maximal inhibition (IC50) fell in the range of 11 to 100 nM.

In the case of `CN(C)Cc1cc(-c2cc(-c3ccc4c(c3)CCNC4=O)c(N)nc2F)cnc1N1CCOCC1` [I-612, 6-(6-amino-5′-((dimethylamino)methyl)-2-fluoro-6′-morpholino-[3,3′-bipyridin]-5-yl)-3,4-dihydroisoquinolin-1(2H)-one], the IC50 fell in the range of 11 to 100 nM.

Regarding `CN(C)Cc1cc(-c2cc(-c3ccc4c(c3)CCNC4=O)c(N)nc2F)ncc1N1CCOCC1` [I-613, 6-(6′-amino-4-((dimethylamino)methyl)-2′-fluoro-5-morpholino-[2,3′-bipyridin]-5′-yl)-3,4-dihydroisoquinolin-1(2H)-one], the IC50 is 11 to 100 nM.

Take `CC(C)N(C)Cc1cc(-c2cc(-c3ccc4c(c3)CCNC4=O)c(N)nc2F)ccc1N1CCOCC1` [I-614, 6-(2-amino-6-fluoro-5-(3-((isopropyl(methyl)amino)methyl)-4-morpholinoophenyl)pyridin-3-yl)-3,4-dihydroisoquinolin-1(2H)-one]: the IC50 was 11 to 100 nM.

As to `CCN(CC)Cc1cc(-c2cc(-c3ccc4c(c3)CCNC4=O)c(N)nc2F)ccc1N1CCOCC1` [I-615, 6-(2-amino-5-(3-((diethylamino)methyl)-4-morpholinophenyl)-6-fluoropyridin-3-yl)-3,4-dihydroisoquinolin-1(2H)-one], the IC50 fell in the range of 0.1 to 10 nM.

Regarding `CN(Cc1cc(-c2cc(-c3ccc4c(c3)CCNC4=O)c(N)nc2F)ccc1N1CCOCC1)CC1CCCO1` (stereo not shown) [I-616, 6-(2-amino-6-fluoro-5-(3-((methyl((tetrahydrofuran-2-yl)methyl)amino)methyl)-4-morpholinophenyl)pyridin-3-yl)-3,4-dihydroisoquinolin-1(2H)-one], the IC50 fell in the range of 0.1 to 10 nM.

Turning to `CN(C)Cc1cc(-c2cc(-c3ccc4c(c3)CCNC4=O)c(N)nc2F)ccc1F` [I-617, 6-(2-amino-5-(3-((dimethylamino)methyl)-4-fluorophenyl)-6-fluoropyridin-3-yl)-3,4-dihydroisoquinolin-1(2H)-one], the IC50 lay within 11 to 100 nM.

For the compound `CN(C)Cc1cc(-c2cc(-c3cc4c(cc3F)C(=O)NCC4)c(N)nc2F)ccc1F` [I-618, 6-(2-amino-5-(3-((dimethylamino)methyl)-4-fluorophenyl)-6-fluoropyridin-3-yl)-7-fluoro-3,4-dihydroisoquinolin-1(2H)-one], the concentration for half-maximal inhibition (IC50) was 11 to 100 nM.

Turning to `CN(Cc1cc(-c2cc(-c3cc4c(cc3F)C(=O)NCC4)c(N)nc2F)ccc1N1CCOCC1)CC1CCCO1` (stereo not shown) [I-619, 6-(2-amino-6-fluoro-5-(3-((methyl((tetrahydrofuran-2-yl)methyl)amino)methyl)-4-morpholinophenyl)pyridin-3-yl)-7-fluoro-3,4-dihydroisoquinolin-1(2H)-one], the IC50 is 11 to 100 nM.

On to `CN(C)Cc1cc(-c2cc(-c3ccc4c(c3)CCNC4=O)c(N)nc2F)ccc1C1CCOC1` (stereo not shown) [I-620, 6-(2-amino-5-(3-((dimethylamino)methyl)-4-(tetrahydrofuran-3-yl)phenyl)-6-fluoropyridin-3-yl)-3,4-dihydroisoquinolin-1(2H)-one], for which the IC50 lay within 0.1 to 10 nM.

In the case of `CN(C)Cc1cc(-c2cc(-c3cc4c(cc3F)C(=O)NCC4)c(N)nc2F)ccc1C1CCOC1` (stereo not shown) [I-621, 6-(2-amino-5-(3-((dimethylamino)methyl)-4-(tetrahydrofuran-3-yl)phenyl)-6-fluoropyridin-3-yl)-7-fluoro-3,4-dihydroisoquinolin-1(2H)-one], the IC50 lay within 11 to 100 nM.

As to `CN(C)Cc1cc(-c2cc(-c3ccc4c(c3)CCNC4=O)c(N)nc2F)c(F)cc1N1CCOCC1` [I-622, 6-(2-amino-5-(5-((dimethylamino)methyl)-2-fluoro-4-morpholinophenyl)-6-fluoropyridin-3-yl)-3,4-dihydroisoquinolin-1(2H)-one], the half-inhibitory concentration (IC50) was 11 to 100 nM.

For the compound `CN(C)Cc1cc(-c2cc(-c3ccc4c(c3)CCNC4=O)c(N)nc2F)c(F)c(F)c1N1CCOCC1` [I-623, 6-(2-amino-5-(5-((dimethylamino)methyl)-2,3-difluoro-4-morpholinophenyl)-6-fluoropyridin-3-yl)-3,4-dihydroisoquinolin-1(2H)-one], the IC50 is 11 to 100 nM.

As for `CC(c1cc(-c2cc(-c3ccc4c(c3)CCNC4=O)c(N)nc2F)ccc1O)N(C)C` (stereo not shown) [I-624, 6-(2-amino-5-(3-(1-(dimethylamino)ethyl)-4-hydroxyphenyl)-6-fluoropyridin-3-yl)-3,4-dihydroisoquinolin-1(2H)-one], the 50% inhibitory concentration (IC50) fell in the range of 11 to 100 nM.

Regarding `CC(C)(N)c1cc(-c2cc(-c3ccc4c(c3)CCNC4=O)c(N)nc2F)ccc1F` [I-625, 6-(2-amino-5-(3-(2-aminopropan-2-yl)-4-fluorophenyl)-6-fluoropyridin-3-yl)-3,4-dihydroisoquinolin-1(2H)-one], the half-maximal inhibitory concentration (IC50) is 101 to 1000 nM.

`Cc1c[nH]c(=O)c2ccc(-c3cc(-c4ccc(F)c(CN(C)C)c4)c(F)nc3N)cc12` [I-626, 6-(2-amino-5-(3-((dimethylamino)methyl)-4-fluorophenyl)-6-fluoropyridin-3-yl)-4-methylisoquinolin-1(2H)-one]: the IC50 fell in the range of 101 to 1000 nM.

Turning to `Cc1c[nH]c(=O)c2ccc(-c3cc(-c4cccc(CN(C)C)c4)c(F)nc3N)cc12` [I-627, 6-(2-amino-5-(3-((dimethylamino)methyl)phenyl)-6-fluoropyridin-3-yl)-4-methylisoquinolin-1(2H)-one], the IC50 lay within 101 to 1000 nM.

On to `Cc1c[nH]c(=O)c2ccc(-c3cc(-c4ccc5c(c4)[C@H](N(C)C)CCO5)c(F)nc3N)cc12` [I-628, (R)-6-(2-amnio-5-(4-(dimethylamino)chroman-6-yl)-6-fluoropyridin-3-yl)-4-methylisoquinolin-1(2H)-one], for which the IC50 was 11 to 100 nM.
